# Where two headings read alike, the source gives them in different places.
# Legend:
# [1] = set-up: method as in PMID 29484635; details: single 35‐mg dose following a high‐fat breakfast; cited from earlier work
# [2] = tested on: neutrophil elastase; set-up: method as in PMID 29484635; details: cited from earlier work
# [3] = tested on: CYP1A2; set-up: method as in unpublished data; details: ref unpublished data; cited from earlier work
# [4] = tested on: organic anion and cation transporters; set-up: method as in unpublished data; details: ref unpublished data, read-out: half maximal inhibitory concentration; cited from earlier work
# [5] = Phase 1 part B: PK of single 40 mg oral dose, fasted vs fed (food effect); format: in vivo, human; details: for AUC(0-inf) / AUC(0-t) / Cmax / half-life / Tmax: human, plasma
# Description: Participants were admitted to the clinical unit the day before doses were administered on days 1 and 8 and discharged on days 2 and 9, after collection of the 36‐hour postdose PK sample. The washout period between doses was 7 days. […] After dosing, participants were required to remain upright for at least 2 hours and refrain from food and drink for at least 4 hours; water was allowed after 2 hours.
# For part B, blood sampling for PK assessments was performed following single‐dose administration on days 1 and 8 at 0 (predose), 0.25, 0.5, 1, 1.5, 2, 3, 3.5, 4, 6, 8, 10, 12, 24, 36, and 72 hours after dosing. PK parameters included Cmax, tmax, AUClast, AUC∞, CL/F, apparent volume of distribution after drug administration, and t1/2.
# The assay range was 0.250 to 150 ng/mL, with overall precision and accuracy for intra‐ and interassays of 2.2% to 5.9% and −2.7% to 0.3%, respectively.
# PK parameters were generated using noncompartmental analysis and were based on the PK population, which included all participants who received at least 1 dose of assigned treatment (safety population) and had evaluable Cmax and AUC parameters without significant protocol deviations. For part B, the PK population included participants who completed both treatment periods and had sufficient concentration data from both periods to fully derive the PK parameters.
# Estimates and 90% CIs for the differences between treatment means were computed and converted to ratios by antilog transformation. Results for the geometric mean ratio of treatments (fasted vs fed) were tabulated for Cmax, AUClast, and AUC∞.
# [6] = tested on: CYP3A4/5; set-up: method as in unpublished data; details: ref unpublished data, read-out: half maximal inhibitory concentration; cited from earlier work
# [7] = set-up: method as in unpublished data; details: ref unpublished data; cited from earlier work
# [8] = tested on: CYP3A4; set-up: method as in unpublished data; details: ref unpublished data; cited from earlier work
# [9] = tested on: CYP2A6; set-up: method as in unpublished data; details: ref unpublished data; cited from earlier work
# [10] = tested on: breast cancer resistance protein; set-up: method as in unpublished data; details: ref unpublished data, read-out: half maximal inhibitory concentration; cited from earlier work
# [11] = oral, 40 mg, Japanese n=9, fasted, least squares mean
# [12] = oral, 40 mg, Japanese n=9, fed, least squares mean
# [13] = oral, 40 mg, White n=10, fasted, least squares mean
# [14] = oral, 40 mg, White n=10, fed, least squares mean
# [15] = po, 40 mg, 40 mg single oral dose, Japanese, fasted, mean (CV%)
# [16] = po, 40 mg, 40 mg single oral dose, Japanese, fed, mean (CV%)
# [17] = po, 40 mg, 40 mg single oral dose, White, fasted, mean (CV%)
# [18] = po, 40 mg, 40 mg single oral dose, White, fed, mean (CV%)
# [19] = po, 40 mg, 40 mg single oral, fasted, Japanese
# [20] = po, 40 mg, 40 mg single oral, fasted, White
smiles,measurement,setting,value
Cn1c(=O)oc2ccc(-c3ccc(C[C@@H](C#N)NC(=O)[C@@H]4CNCCCO4)cc3)cc21 [Brensocatib],Tmax,[1],3.3 h
same,decrease of AUC with food,[1],9%
same,decrease of Cmax with food,[1],36%
same,inhibition of the activity of neutrophil elastase in blood,[2],exposure‐dependent
same,CYP inhibition,[3],no effect
same,IC50,[4],> 11 µM
same,effect of food on exposure,[5]; 40 mg,no effect
same,CL/F,"[5]; 40 mg single oral, fasted, Japanese",7.7 L/h
same,CL/F,"[5]; 40 mg single oral, fasted, White",6.5 L/h
same,"AUClast GMR (fed/fasted), % (90% CI)","[5]; 40 mg, Japanese n=9",98.4 (94.4‐102.5) %
same,"AUC∞ GMR (fed/fasted), % (90% CI)","[5]; 40 mg, Japanese n=9",99.2 (95.7‐102.8) %
same,"Cmax GMR (fed/fasted), % (90% CI)","[5]; 40 mg, Japanese n=9",82.4 (67.9‐99.9) %
same,Cmax lower in the fed state,"[5]; 40 mg, Japanese participants",17.6%
same,"AUClast GMR (fed/fasted), % (90% CI)","[5]; 40 mg, White n=10",101.3 (96.8‐106.0) %
same,"AUC∞ GMR (fed/fasted), % (90% CI)","[5]; 40 mg, White n=10",99.6 (94.6‐104.9) %
same,"Cmax GMR (fed/fasted), % (90% CI)","[5]; 40 mg, White n=10",101.2 (81.4‐125.9) %
same,AUC(0-inf),[5]; [11],5270 ng·h/mL
same,AUC(0-t),[5]; [11],4920 ng·h/mL
same,Cmax,[5]; [11],356 ng/mL
same,AUC(0-inf),[5]; [12],5230 ng·h/mL
same,AUC(0-t),[5]; [12],4840 ng·h/mL
same,Cmax,[5]; [12],293 ng/mL
same,AUC(0-inf),[5]; [13],6200 ng·h/mL
same,AUC(0-t),[5]; [13],5150 ng·h/mL
same,Cmax,[5]; [13],269 ng/mL
same,AUC(0-inf),[5]; [14],6180 ng·h/mL
same,AUC(0-t),[5]; [14],5210 ng·h/mL
same,Cmax,[5]; [14],272 ng/mL
same,half-life,"[5]; oral, 40 mg, fasted and fed, White, read-out: Mean t1/2 (converted)",27 to 28 h
same,Tmax,"[5]; oral, 40 mg, fasted, Japanese, read-out: median Tmax",1.3 h
same,Tmax,"[5]; oral, 40 mg, fasted, White, read-out: median Tmax",1.3 h
same,half-life,"[5]; oral, 40 mg, fed, Japanese, read-out: Mean t1/2 (converted)",18.4 h
same,Tmax,"[5]; oral, 40 mg, fed, Japanese, read-out: median Tmax",3 h
same,Tmax,"[5]; oral, 40 mg, fed, White, read-out: median Tmax",2 h
same,AUC(0-inf),[5]; [15],5470 ng·h/mL
same,AUC(0-t),[5]; [15],5010 ng·h/mL
same,Cmax,[5]; [15],352 ng/mL
same,half-life,"[5]; po, 40 mg, 40 mg single oral dose, Japanese, fasted, mean (CV%), read-out: t1/2 (converted)",19.3 h
same,Tmax,"[5]; po, 40 mg, 40 mg single oral dose, Japanese, fasted, median (range), read-out: Tmax",1.27 h
same,AUC(0-inf),[5]; [16],5490 ng·h/mL
same,AUC(0-t),[5]; [16],4980 ng·h/mL
same,Cmax,[5]; [16],297 ng/mL
same,half-life,"[5]; po, 40 mg, 40 mg single oral dose, Japanese, fed, mean (CV%), read-out: t1/2 (converted)",19.4 h
same,Tmax,"[5]; po, 40 mg, 40 mg single oral dose, Japanese, fed, median (range), read-out: Tmax",3 h
same,AUC(0-inf),[5]; [17],6680 ng·h/mL
same,AUC(0-t),[5]; [17],5480 ng·h/mL
same,Cmax,[5]; [17],301 ng/mL
same,half-life,"[5]; po, 40 mg, 40 mg single oral dose, White, fasted, mean (CV%), read-out: t1/2 (converted)",28.9 h
same,Tmax,"[5]; po, 40 mg, 40 mg single oral dose, White, fasted, median (range), read-out: Tmax",1.25 h
same,AUC(0-inf),[5]; [18],6500 ng·h/mL
same,AUC(0-t),[5]; [18],5470 ng·h/mL
same,Cmax,[5]; [18],302 ng/mL
same,half-life,"[5]; po, 40 mg, 40 mg single oral dose, White, fed, mean (CV%), read-out: t1/2 (converted)",27.5 h
same,Tmax,"[5]; po, 40 mg, 40 mg single oral dose, White, fed, median (range), read-out: Tmax",2 h
same,AUC(0-inf),[5]; [19],5180 ng·h/mL
same,AUC(0-t),[5]; [19],4820 ng·h/mL
same,Cmax,[5]; [19],338 ng/mL
same,half-life,"[5]; po, 40 mg, 40 mg single oral, fasted, Japanese, read-out: Elimination t1/2 (converted)",18.7 h
same,AUC(0-inf),[5]; [20],6200 ng·h/mL
same,AUC(0-t),[5]; [20],5150 ng·h/mL
same,Cmax,[5]; [20],269 ng/mL
same,half-life,"[5]; po, 40 mg, 40 mg single oral, fasted, White, read-out: Elimination t1/2 (converted)",28 h
same,Tmax,"[5]; po, 40 mg, 40 mg single oral, fasted, both Japanese and White participants, read-out: Tmax",1.3 h
same,IC50,[6],> 30 µM
same,degradation in human intestinal microsomes and hepatocytes,[7],minimal degradation
same,CYP induction (significant inducer or not),[8],not a significant
same,CYP inhibition,[9],no effect
same,IC50,[10],> 11 µM
